The record followed here is patent US20150105252A1, “SUBSTITUTED PYRAZOLES AS HERBICIDES” (E I DU PONT DE NEMOURS AND COMPANY, priority 2013, published 2015).

Holding throughout (test): Test F preemergence
Test [1] deals with corn. The format is in vivo, Zea mays. An excerpt:
(§1) Seeds of plant species selected from corn (Zea mays), soybean (Glycine max), velvetleaf (Abutilon theophrasti), lambsquarters (Chenopodium album), wild poinsettia (Euphorbia heterophylla), pigweed, palmer (palmer pigweed, Amaranthus palmeri), common waterhemp (Amaranthus rudis), surinam grass (Brachiaria decumbens), large crabgrass (Digitaria sanguinalis), crabgrass, Brazil (Brazilian crabgrass, Digitaria horizontalis), fall panicum (Panicum dichotomiflorum), giant foxtail (Setaria faberii), green foxtail (Setaria viridis), goosegrass (Eleusine indica), johnsongrass (Sorghum halepense), common ragweed (Ambrosia elation), barnyardgrass (Echinochloa crus-galli), southern sandbur (Cenchrus echinatus), arrowleaf sida (Sida rhombifolia), Italian ryegrass (Lolium multiflorum), dayflower, VA (Virginia (VA) dayflower, Commelina virginica), field bindweed (Convolvulus arvensis), cocklebur (common cocklebur, Xanthium strumarium), morningglory (Ipomoea coccinea), nightshade (eastern black nightshade, Solanum ptycanthum), kochia (Kochia scoparia), yellow nutsedge (Cyperus esculentus), and hairy beggarticks (Bidens pilosa), were planted into a silt loam soil and treated preemergence with test chemicals formulated in a non-phytotoxic solvent mixture which included a surfactant.
(§2) At the same time, plants from these crop and weed species and also horseweed (Canada horseweed, Conyza canadensis), smartweed (ladysthumb smartweed, Polygonum persicaria), waterhemp_RES1, (ALS & Triazine resistant common waterhemp, Amaranthus rudis), and waterhemp_RES2, (ALS & HPPD resistant common waterhemp, Amaranthus rudis) were treated with postemergence applications of test chemicals formulated in the same manner. Plants ranged in height from 2 to 18 cm for postemergence treatments (1- to 4-leaf stage). Treated plants and controls were maintained in a greenhouse for 14 to 21 days, after which time all species were compared to controls and visually evaluated. Plant response ratings, summarized in Table F, are based on a scale of 0 to 100 where 0 is no effect and 100 is complete control. A dash (-) response means no test result.

The subject of test [2] is crabgrass, Brazil. It counts as in vivo, Digitaria horizontalis.
From the text: as §1, §2

For test [3], the system named is green foxtail. It counts as in vivo, Setaria viridis.
From the text: as §1, §2

Test [4] deals with johnsongrass. It counts as in vivo, Sorghum halepense.
From the text: as §1, §2

For test [5], the system named is barnyardgrass. The format is in vivo, Echinochloa crus-galli.
From the text: as §1, §2

The mark [6] stands for this setting: Preemergence, 31 g ai/ha, scale 0 to 100.
The mark [7] stands for this setting: Preemergence, 62 g ai/ha, scale 0 to 100.
Where [8] appears, read: Preemergence, 125 g ai/ha, scale 0 to 100.
The mark [9] stands for this setting: preemergence, 8 g ai/ha, scale 0 to 100, 100 is complete control.
Where [10] appears, read: preemergence, 16 g ai/ha, scale 0 to 100, 100 is complete control.
[11] abbreviates: Preemergence, 16 g ai/ha, scale 0 to 100.
Where [12] appears, read: Preemergence, 250 g ai/ha, scale 0 to 100.

Regarding `CCOc1cc(C(=O)NCC(F)(F)F)nn1Cc1ccnc(C(F)(F)F)c1` [Compound 104], the “Plant response rating, Corn” value in test [1] (setting [6]) amounted to 30; in test [1] (setting [7]) it was 50; in test [1] (setting [8]), 60; in test [1] (setting [9]) it was 0; in test [1] (setting [10]), 0. The “Plant response rating, Crabgrass, Brazil” value in test [2] (setting [6]) was determined as 95; in test [2] (setting [7]), 100; in test [2] (setting [8]), 100; in test [2] (setting [9]), 5; in test [2] (setting [10]), 10. In addition, the “Plant response rating, Green Foxtail” value in test [3] (setting [6]) is 100; in test [3] (setting [7]), 100; in test [3] (setting [8]), 100; in test [3] (setting [9]), 5; in test [3] (setting [10]), 60. In addition, the “Plant response rating, Johnsongrass” value in test [4] (setting [6]) is on record as 60; in test [4] (setting [7]) it was 75; in test [4] (setting [8]), 100; in test [4] (setting [9]), 15; in test [4] (setting [10]) it was 35. The “Plant response rating, Barnyardgrass” value is given as 50 in test [5] (setting [6]); 100 in test [5] (setting [7]); 100 in test [5] (setting [8]); 10 in test [5] (setting [9]); 20 in test [5] (setting [10]).

In the case of `CCNC(=O)c1cc(CCCl)n(Cc2ccnc(C(F)(F)F)c2)n1` [Compound 179], the “Plant response rating, Corn” value in test [1] (setting [6]) is 20; in test [1] (setting [7]), 30; in test [1] (setting [8]), 30; in test [1] (setting [9]), 0. The “Plant response rating, Crabgrass, Brazil” value was found to be 75 in test [2] (setting [6]), 100 in test [2] (setting [7]), 100 in test [2] (setting [8]) and 0 in test [2] (setting [9]). The “Plant response rating, Green Foxtail” value in test [3] (setting [6]) is 20; in test [3] (setting [7]), 20; in test [3] (setting [8]) it was 70; in test [3] (setting [9]) it was 0. Also, the “Plant response rating, Johnsongrass” value is 20 in test [4] (setting [6]), 20 in test [4] (setting [7]), 70 in test [4] (setting [8]) and 0 in test [4] (setting [9]). For the same compound, the “Plant response rating, Barnyardgrass” value in test [5] (setting [6]) was 15; in test [5] (setting [7]), 20; in test [5] (setting [8]) it was 50; in test [5] (setting [9]), 0.

Turning to `CCNC(=O)c1cc(CC)n(Cc2ccnc(C(F)(F)F)c2)n1` [Compound 196], the “Plant response rating, Corn” value is 0 in test [1] (setting [7]), 25 in test [1] (setting [8]), 0 in test [1] (setting [9]) and 0 in test [1] (setting [10]). Moreover, the “Plant response rating, Crabgrass, Brazil” value was found to be 100 in test [2] (setting [11]); 100 in test [2] (setting [7]); 100 in test [2] (setting [8]); 30 in test [2] (setting [9]); 75 in test [2] (setting [10]). The “Plant response rating, Green Foxtail” value in test [3] (setting [7]) amounted to 75; in test [3] (setting [8]), 100; in test [3] (setting [9]) it was 0; in test [3] (setting [10]) it was 0. Also, the “Plant response rating, Johnsongrass” value in test [4] (setting [7]) is 35; in test [4] (setting [8]), 80; in test [4] (setting [9]), 0; in test [4] (setting [10]) it was 0. Besides, the “Plant response rating, Barnyardgrass” value stood at 0 in test [5] (setting [11]); 10 in test [5] (setting [7]); 65 in test [5] (setting [8]); 0 in test [5] (setting [9]); 0 in test [5] (setting [10]).

`Cc1cc(C(=O)NC(C)C)nn1Cc1ccnc(C(F)(F)F)c1` [Compound 197]: the “Plant response rating, Corn” value came to 0 in test [1] (setting [7]), 20 in test [1] (setting [8]), 0 in test [1] (setting [9]) and 0 in test [1] (setting [10]). Also, the “Plant response rating, Crabgrass, Brazil” value in test [2] (setting [11]) amounted to 85; in test [2] (setting [7]), 100; in test [2] (setting [8]), 100; in test [2] (setting [9]) it was 0; in test [2] (setting [10]) it was 75. Moreover, the “Plant response rating, Green Foxtail” value was determined as 35 in test [3] (setting [7]), 65 in test [3] (setting [8]), 0 in test [3] (setting [9]) and 0 in test [3] (setting [10]). Moreover, the “Plant response rating, Johnsongrass” value in test [4] (setting [7]) is 0; in test [4] (setting [8]), 20; in test [4] (setting [9]), 0; in test [4] (setting [10]), 0. Further, the “Plant response rating, Barnyardgrass” value in test [5] (setting [11]), in test [5] (setting [7]), in test [5] (setting [8]), in test [5] (setting [9]) and in test [5] (setting [10]) was 0 in each case.

Turning to `CCc1cc(C(=O)NC2CC2)nn1Cc1ccnc(OCC(F)(F)F)c1` [Compound 200], the “Plant response rating, Corn” value in test [1] (setting [12]) is reported as 35; in test [1] (setting [7]) it was 0; in test [1] (setting [8]), 0; in test [1] (setting [10]), 0. For the same compound, the “Plant response rating, Crabgrass, Brazil” value in test [2] (setting [12]) worked out at 100; in test [2] (setting [11]), 35; in test [2] (setting [7]) it was 95; in test [2] (setting [8]), 100; in test [2] (setting [10]), 0. Moreover, the “Plant response rating, Green Foxtail” value was found to be 85 in test [3] (setting [12]), 5 in test [3] (setting [7]), 60 in test [3] (setting [8]) and 0 in test [3] (setting [10]). Further, the “Plant response rating, Johnsongrass” value amounted to 75 in test [4] (setting [12]), 20 in test [4] (setting [7]), 70 in test [4] (setting [8]) and 0 in test [4] (setting [10]). Further, the “Plant response rating, Barnyardgrass” value in test [5] (setting [12]) turned out to be 50; in test [5] (setting [11]), 15; in test [5] (setting [7]) it was 25; in test [5] (setting [8]) it was 20; in test [5] (setting [10]), 0.
